According to PubChem BioAssay AID1963969 (Molecular Pharmacology Branch, DTP, NCI, 2024):

System: 817829-284-R-J1-PDC multi-cell spheroid viability
Assay: Anticancer human tumor 817829-284-R-J1-PDC patient-derived colon adenocarcinoma cell line growth inhibition [PI3K]
Details: for IC50: curve of first compound; for viability, T/C: stronger effect = lower value; active means viability on the fitted dose curve at most 10% of control; inactive means the rest
Outline: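 Tumor cells grown as multi-cell spheroids with HUVEC endothelial cells and MSC fibroblast-like stroma were treated with targeted agents combined with inavolisib, alpelisib, duvelisib or copanlisib. Doses fell in half-log steps from near clinical Cmax, else from 10 microM. Viability was measured.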

[1] = second compound 0.0316 µM, first compound 0.00316 µM
[2] = second compound 0.0316 µM, first compound 0.01 µM
[3] = second compound 0.0316 µM, first compound 0.0316 µM
[4] = second compound 0.0316 µM, first compound 0.1 µM
[5] = second compound 0.0316 µM, first compound 0.316 µM
[6] = second compound 0.0316 µM, first compound 1 µM
[7] = second compound 0.1 µM, first compound 0.00316 µM
[8] = second compound 0.1 µM, first compound 0.01 µM
[9] = second compound 0.1 µM, first compound 0.0316 µM
[10] = second compound 0.1 µM, first compound 0.1 µM
[11] = second compound 0.1 µM, first compound 0.316 µM
[12] = second compound 0.1 µM, first compound 1 µM
[13] = second compound 0.316 µM, first compound 0.00316 µM
[14] = second compound 0.316 µM, first compound 0.01 µM
[15] = second compound 0.316 µM, first compound 0.0316 µM
[16] = second compound 0.316 µM, first compound 0.1 µM
[17] = second compound 0.316 µM, first compound 0.316 µM
[18] = second compound 0.316 µM, first compound 1 µM
[19] = second compound 1 µM, first compound 0.00316 µM
[20] = second compound 1 µM, first compound 0.01 µM
[21] = second compound 1 µM, first compound 0.0316 µM
[22] = second compound 1 µM, first compound 0.1 µM
[23] = second compound 1 µM, first compound 0.316 µM
[24] = second compound 1 µM, first compound 1 µM
[25] = second compound 3.16 µM, first compound 0.00316 µM
[26] = second compound 3.16 µM, first compound 0.01 µM
[27] = second compound 3.16 µM, first compound 0.0316 µM
[28] = second compound 3.16 µM, first compound 0.1 µM
[29] = second compound 3.16 µM, first compound 0.316 µM
[30] = second compound 3.16 µM, first compound 1 µM
[31] = second compound 10 µM, first compound 0.00316 µM
[32] = second compound 10 µM, first compound 0.01 µM
[33] = second compound 10 µM, first compound 0.0316 µM
[34] = second compound 10 µM, first compound 0.1 µM
[35] = second compound 10 µM, first compound 0.316 µM
[36] = second compound 10 µM, first compound 1 µM
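Further: spheroids exposed to agents for seven days before readout.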
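Wherever viability, T/C is given: percent of vehicle DMSO control viability which is 100%.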

CCN1CCN(Cc2ccc(Nc3ncc(F)c(-c4cc(F)c5nc(C)n(C(C)C)c5c4)n3)nc2)CC1 + Cc1nc(NC(=O)N2CCCC2C(N)=O)sc1-c1ccnc(C(C)(C)C(F)(F)F)c1
6.96 nM: IC50 (second compound 10 µM)
325 nM: IC50 (second compound 0.316 µM)
122 nM: IC50 (second compound 1 µM)
316 nM: IC50 (second compound 0.1 µM)
56.9 nM: IC50 (second compound 3.16 µM)
inactive: viability, T/C [1] 75.4% | viability, T/C [2] 55.4% | viability, T/C [3] 90.8% | viability, T/C [4] 52.5% | viability, T/C [5] 66.5% | viability, T/C [6] 42.1% | viability, T/C [7] 91.5% | viability, T/C [8] 70.8% | viability, T/C [9] 112% | viability, T/C [10] 46.7% | viability, T/C [11] 64.4% | viability, T/C [12] 59.1% | viability, T/C [13] 76.4% | viability, T/C [14] 53.1% | viability, T/C [15] 74.9% | viability, T/C [16] 49.9% | viability, T/C [17] 48.2% | viability, T/C [18] 47.1% | viability, T/C [19] 76% | viability, T/C [20] 63.5% | viability, T/C [21] 56.5% | viability, T/C [22] 47.8% | viability, T/C [23] 51.5% | viability, T/C [24] 43.7% | viability, T/C [25] 53.1% | viability, T/C [26] 63.5% | viability, T/C [27] 61% | viability, T/C [28] 39.4% | viability, T/C [29] 41.6% | viability, T/C [30] 42.6% | viability, T/C [31] 66.1% | viability, T/C [32] 35.1% | viability, T/C [33] 51.9% | viability, T/C [34] 38.4% | viability, T/C [35] 46.7% | viability, T/C [36] 41%
638 nM: IC50 (second compound 0.0316 µM)

C[C@@H](NC(=O)c1ncnc(N)c1Cl)c1ncc(C(=O)Nc2cc(C(F)(F)F)c(Cl)cn2)s1 + Cc1nc(NC(=O)N2CCCC2C(N)=O)sc1-c1ccnc(C(C)(C)C(F)(F)F)c1
inactive: viability, T/C [3] 106% | viability, T/C [4] 74.4% | viability, T/C [5] 71.9% | viability, T/C [6] 68.5% | viability, T/C (second compound 0.0316 µM, first compound 3.16 µM) 96.3% | viability, T/C (second compound 0.0316 µM, first compound 10 µM) 88.2% | viability, T/C [9] 77.5% | viability, T/C [10] 86.3% | viability, T/C [11] 81.1% | viability, T/C [12] 72.4% | viability, T/C (second compound 0.1 µM, first compound 3.16 µM) 70.7% | viability, T/C (second compound 0.1 µM, first compound 10 µM) 83% | viability, T/C [15] 79.8% | viability, T/C [16] 85.9% | viability, T/C [17] 61.9% | viability, T/C [18] 59.4% | viability, T/C (second compound 0.316 µM, first compound 3.16 µM) 80.7% | viability, T/C (second compound 0.316 µM, first compound 10 µM) 65.6% | viability, T/C [21] 56% | viability, T/C [22] 86.5% | viability, T/C [23] 74.9% | viability, T/C [24] 96.6% | viability, T/C (second compound 1 µM, first compound 3.16 µM) 61.9% | viability, T/C (second compound 1 µM, first compound 10 µM) 93.9% | viability, T/C [27] 73.8% | viability, T/C [28] 53.8% | viability, T/C [29] 70.5% | viability, T/C [30] 84.8% | viability, T/C (second compound 3.16 µM, first compound 3.16 µM) 102% | viability, T/C (second compound 3.16 µM, first compound 10 µM) 74.5% | viability, T/C [33] 45.7% | viability, T/C [34] 31.2% | viability, T/C [35] 61.7% | viability, T/C [36] 54.3% | viability, T/C (second compound 10 µM, first compound 3.16 µM) 94.9% | viability, T/C (second compound 10 µM, first compound 10 µM) 42.3%
< 31.6 nM: IC50 (second compound 10 µM)
> 10000 nM: IC50 (second compound 0.0316 µM) | IC50 (second compound 0.1 µM) | IC50 (second compound 0.316 µM) | IC50 (second compound 1 µM) | IC50 (second compound 3.16 µM)

Cn1ncnc1[C@H]1c2n[nH]c(=O)c3cc(F)cc(c23)N[C@@H]1c1ccc(F)cc1 + Cc1nc(NC(=O)N2CCCC2C(N)=O)sc1-c1ccnc(C(C)(C)C(F)(F)F)c1
25.1 nM: IC50 (second compound 0.0316 µM)
7.2 nM: IC50 (second compound 0.316 µM)
11.9 nM: IC50 (second compound 10 µM)
41.2 nM: IC50 (second compound 1 µM)
16.3 nM: IC50 (second compound 3.16 µM)
62.7 nM: IC50 (second compound 0.1 µM)
inactive: viability, T/C (second compound 0.0316 µM, first compound 0.000316 µM) 60.7% | viability, T/C (second compound 0.0316 µM, first compound 0.001 µM) 77% | viability, T/C [1] 72.5% | viability, T/C [2] 55.1% | viability, T/C [3] 49.4% | viability, T/C [4] 48% | viability, T/C (second compound 0.1 µM, first compound 0.000316 µM) 78.6% | viability, T/C (second compound 0.1 µM, first compound 0.001 µM) 72.2% | viability, T/C [7] 69.1% | viability, T/C [8] 59.6% | viability, T/C [9] 53.9% | viability, T/C [10] 47.5% | viability, T/C (second compound 0.316 µM, first compound 0.000316 µM) 84.8% | viability, T/C (second compound 0.316 µM, first compound 0.001 µM) 87.2% | viability, T/C [13] 55.5% | viability, T/C [14] 55.8% | viability, T/C [15] 37.2% | viability, T/C [16] 50.2% | viability, T/C (second compound 1 µM, first compound 0.000316 µM) 59% | viability, T/C (second compound 1 µM, first compound 0.001 µM) 52.1% | viability, T/C [19] 54.5% | viability, T/C [20] 43.3% | viability, T/C [21] 70.2% | viability, T/C [22] 30.8% | viability, T/C (second compound 3.16 µM, first compound 0.000316 µM) 48.5% | viability, T/C (second compound 3.16 µM, first compound 0.001 µM) 72.7% | viability, T/C [25] 60.7% | viability, T/C [26] 62.6% | viability, T/C [27] 33.1% | viability, T/C [28] 36.8% | viability, T/C (second compound 10 µM, first compound 0.000316 µM) 49.9% | viability, T/C (second compound 10 µM, first compound 0.001 µM) 54.9% | viability, T/C [31] 60.7% | viability, T/C [32] 40.6% | viability, T/C [33] 50.8% | viability, T/C [34] 38.2%
